Here are results for 36 molecules from ChEMBL document CHEMBL3400058, “Synthesis, anticonvulsant activity and molecular modeling study of some new hydrazinecarbothioamide, benzenesulfonohydrazide, and phenacylacetohydrazide analogues of 4(3H)-quinazolinone” (Bioorg Med Chem Lett, 2015).

Molecules are shown by their SMILES.

Series [1] has as its system Mus musculus. Nature of the series: Anticonvulsant activity in mouse assessed as prolongation of convulsions onset time at 150 mg/kg, ip administered 20 mins prior to PTZ challenge relative to control. Particulars: route intraperitoneal. It counts as functional.
For series [2], the system named is Mus musculus. Put plainly: Anticonvulsant activity in mouse assessed as decrease in convulsion frequency at 150 mg/kg, ip administered 20 mins prior to PTZ challenge relative to control. Format: functional. Also on record: scale not given: the % may be the effect or the level left. Conditions: route intraperitoneal.
Series [3] has as its system Mus musculus. Put plainly: Anticonvulsant activity in mouse assessed as delay of death time at 150 mg/kg, ip administered 20 mins prior to PTZ challenge relative to control. Format: functional. Particulars: route intraperitoneal.
Series [4] deals with Mus musculus. Put plainly: Anticonvulsant activity in mouse assessed as prolongation of convulsions onset time at 150 mg/kg, ip administered 20 mins prior to picrotoxin challenge relative to control. Format: functional. Conditions: route intraperitoneal.
For series [5], the system named is Mus musculus. Put plainly: Anticonvulsant activity in mouse assessed as decrease in convulsion frequency at 150 mg/kg, ip administered 20 mins prior to picrotoxin challenge relative to control. Format: functional. Also on record: scale not given: the % may be the effect or the level left. Particulars: route intraperitoneal.
Series [6] has as its system Mus musculus. Put plainly: Anticonvulsant activity in mouse assessed as delay of death time at 150 mg/kg, ip administered 20 mins prior to picrotoxin challenge relative to control. Format: functional. Particulars: route intraperitoneal.
The test system of series [7] is Mus musculus. Put plainly: Anticonvulsant activity in mouse assessed as prolongation of convulsions onset time at 50 mg/kg, ip administered 20 mins prior to PTZ challenge relative to control. Format: functional. Particulars: route intraperitoneal.
Series [8] has as its system Mus musculus. Put plainly: Anticonvulsant activity in mouse assessed as decrease in convulsion frequency at 50 mg/kg, ip administered 20 mins prior to PTZ challenge relative to control. It counts as functional. Also on record: scale not given: the % may be the effect or the level left. Particulars: route intraperitoneal.
For series [9], the system named is Mus musculus. Put plainly: Anticonvulsant activity in mouse assessed as delay of death time at 50 mg/kg, ip administered 20 mins prior to PTZ challenge relative to control. It counts as functional. Conditions: route intraperitoneal.
For series [10], the species on record is Mus musculus. Put plainly: Protective index, ratio of TD50 for mouse to ED50 for anticonvulsant activity in mouse.
Series [11] can be described thus: Therapeutic index, ratio of LD50 for mouse to ED50 for anticonvulsant activity in mouse. Format: organism-based. Conditions: in vivo, read-out: Ratio LD50/ED50.
The subject of series [12] is Mus musculus. Nature of the series: Anticonvulsant activity in mouse assessed as protection against PTZ-induced convulsions at 50 mg/kg, ip administered 20 mins prior to PTZ challenge relative to control. It counts as functional. Particulars: route intraperitoneal.
Series [13] relates to Mus musculus. Put plainly: Anticonvulsant activity in mouse assessed as protection against PTZ-induced convulsions at 150 mg/kg, ip administered 20 mins prior to PTZ challenge relative to control. Format: functional. Conditions: route intraperitoneal.
Series [14] has as its system Mus musculus. Put plainly: Toxicity in mouse at 150 mg/kg, […] 20 mins prior to PTZ challenge relative to control. Format: organism-based. Also on record: dose 150 mg/kg. Conditions: in vivo.

`CCCCC(=O)NNC(=O)CSc1nc2ccc(Cl)cc2c(=O)n1-c1ccccc1`: the results for the Activity in series [1], in series [2] and in series [3] were 114%, 87% and 47%, respectively.

Turning to `CSc1nc2ccc(Cl)cc2c(=O)n1-c1ccccc1`, the Activity is 114% in series [1], 0% in [2] and 44% in series [3].

In the case of `COc1cc2nc(SC)n(-c3ccccc3)c(=O)c2cc1OC`, the Activity in series [1] is given as 35%; in series [2], 0%; in series [3] it was 461%.

For `CSc1nc2ccc(Cl)cc2c(=O)n1Cc1ccccc1`, the Activity is 114% in [1]; 61% in [2]; 5% in series [3]; 36% in [4]; 91% in series [5]; 0% in series [6].

In the case of `CCOC(=O)CSc1nc2ccc(Cl)cc2c(=O)n1-c1ccccc1`, the Activity in series [1] and in [2] was 0% throughout.

`CCOC(=O)CSc1nc2ccc(Cl)cc2c(=O)n1Cc1ccccc1`: the Activity in [1] is given as 0%; in [2], 0%; in series [4], 5%; in [5] it was 25%; in series [6] it was 17%.

`O=C(CSc1nc2ccc(Cl)cc2c(=O)n1-c1ccccc1)NNC(=S)NCc1ccccc1`: the Activity in series [1] is on record as 114%; in series [2], 0%; in series [3] it was 145%.

With `O=C(CSc1nc2ccc(Cl)cc2c(=O)n1Cc1ccccc1)NNC(=S)Nc1ccccc1`, the Activity in [1] and in series [2] was 0% in each case.

For the molecule `O=C(CSc1nc2ccc(Cl)cc2c(=O)n1Cc1ccccc1)NNC(=S)NCc1ccccc1`, the Activity in series [1] turned out to be 471%; in [2], 61%; in series [3] it was 101%; in series [4], 15%; in [5], 39%; in [6] it was 25%.

Regarding `COc1cc2nc(SCC(=O)NNC(=S)Nc3ccccc3)n(Cc3ccccc3)c(=O)c2cc1OC`, the Activity was found to be 150% in [1]; 81% in [2]; 5% in [3]; 4% in series [4]; 89% in series [5]; 25% in [6].

Regarding `COc1cc2nc(SCC(=O)NNC(=S)NCc3ccccc3)n(Cc3ccccc3)c(=O)c2cc1OC`, the Activity was determined as 43% in [1]; 38% in series [2]; 32% in [3]; 78% in [4]; 66% in series [5]; 22% in series [6].

With `Cc1ccc(S(=O)(=O)NNC(=O)CSc2nc3ccc(Cl)cc3c(=O)n2-c2ccccc2)cc1`, the figures for the Activity in series [1], in series [2] and in series [3] were 43%, 48% and 40%, respectively.

On to `Cc1ccc(S(=O)(=O)NNC(=O)CSc2nc3ccc(Cl)cc3c(=O)n2Cc2ccccc2)cc1`, for which the results for the Activity in [1], in series [2] and in series [3] were 43%, 74% and 47%, respectively.

On to `COc1cc2nc(SCC(=O)NNS(=O)(=O)c3ccc(C)cc3)n(Cc3ccccc3)c(=O)c2cc1OC`, for which the values for the Activity in series [1] and in series [2] were 43% and 0%, respectively.

Turning to `CC(=O)NNC(=O)CSc1nc2ccc(Cl)cc2c(=O)n1-c1ccccc1`, the figures for the Activity in series [1], in series [2] and in series [3] were 186%, 48% and 216%, respectively.

`CCC(=O)NNC(=O)CSc1nc2ccc(Cl)cc2c(=O)n1-c1ccccc1`: the Activity is 1471% in series [7], 74% in series [8], 636% in [9] and 100% in [12]. For the same molecule, in series [10], the “Ratio TD50/ED50” value came out at 8.5. Besides, the selectivity ratio in series [11] was 24.6.

In the case of `CCCC(=O)NNC(=O)CSc1nc2ccc(Cl)cc2c(=O)n1-c1ccccc1`, the Activity is 43% in [1], 82% in [2] and 75% in series [3].

For `O=C(CSc1nc2ccc(Cl)cc2c(=O)n1-c1ccccc1)NNC(=O)c1ccccc1`, the figures for the Activity in series [1], in [2] and in series [3] were 114%, 87% and 0%, respectively.

With `O=C(CSc1nc2ccc(Cl)cc2c(=O)n1-c1ccccc1)NNC(=O)Cc1ccccc1`, the Activity in series [7] came to 43%; in series [8], 0%.

Turning to `O=C(CCc1ccccc1)NNC(=O)CSc1nc2ccc(Cl)cc2c(=O)n1-c1ccccc1`, the Activity in [1] is reported as 43%; in series [2] it was 0%.

With `CC(=O)NNC(=O)CSc1nc2ccc(Cl)cc2c(=O)n1Cc1ccccc1`, the Activity in series [3] was found to be 303%; in series [13] it was 100%; in [4] it was 63%; in [5] it was 60%; in series [6], 50%. The “Ratio TD50/ED50” value in [10] came out at 8.7. In [11], the selectivity ratio came out at 9.7.

For `CCC(=O)NNC(=O)CSc1nc2ccc(Cl)cc2c(=O)n1Cc1ccccc1`, the figures for the Activity in series [1], in series [2] and in [3] were 43%, 74% and 0%, respectively.

Regarding `CCCC(=O)NNC(=O)CSc1nc2ccc(Cl)cc2c(=O)n1Cc1ccccc1`, the Activity in series [1] came to 78%; in series [2], 61%; in series [3] it was 14%; in series [4], 0%.

For the molecule `CCCCC(=O)NNC(=O)CSc1nc2ccc(Cl)cc2c(=O)n1Cc1ccccc1`, the Activity in [1] and in series [2] was 0% in each case.

Take `COc1cc2nc(SCC(=O)NNC(C)=O)n(Cc3ccccc3)c(=O)c2cc1OC`: the Activity in series [1] and in [2] was 0% each time.

Regarding `CCC(=O)NNC(=O)CSc1nc2cc(OC)c(OC)cc2c(=O)n1Cc1ccccc1`, the Activity in series [1] turned out to be 471%; in series [2], 81%; in [3] it was 216%; in series [13] it was 100%; in series [4], 11%; in series [5] it was 79%. Besides, the Activity in [6] worked out at 8%. Also, the “Ratio TD50/ED50” value in [10] came to 4.1. The selectivity ratio in series [11] was 5.1.

As to `CCCC(=O)NNC(=O)CSc1nc2cc(OC)c(OC)cc2c(=O)n1Cc1ccccc1`, the Activity came out at 114% in series [1], 0% in series [2] and 58% in series [3].

As to `CCCCC(=O)NNC(=O)CSc1nc2cc(OC)c(OC)cc2c(=O)n1Cc1ccccc1`, the Activity in series [1] and in series [2] was 0% throughout.

Regarding `O=C(CSc1nc2ccc(Cl)cc2c(=O)n1Cc1ccccc1)NNC(=O)c1ccccc1`, the Activity in [1] was found to be 185%; in series [2], 23%; in series [3] it was 75%.

Consider `O=C(CSc1nc2ccc(Cl)cc2c(=O)n1Cc1ccccc1)NNC(=O)Cc1ccccc1`, for which the results for the Activity in [1], in series [2] and in [3] were 43%, 61% and 47%, respectively.

`O=C(CCc1ccccc1)NNC(=O)CSc1nc2ccc(Cl)cc2c(=O)n1Cc1ccccc1`: the Activity is on record as 685% in series [1], 74% in series [2], 254% in [3] and 100% in series [13]. For the same molecule, in [10], the “Ratio TD50/ED50” value was determined as 4.6. Also, in [11], the selectivity ratio is 9.8.

For `COc1cc2nc(SCC(=O)NNC(=O)c3ccccc3)n(Cc3ccccc3)c(=O)c2cc1OC`, the Activity in series [1] and in series [2] was 0% throughout.

For the molecule `COc1cc2nc(SCC(=O)NNC(=O)Cc3ccccc3)n(Cc3ccccc3)c(=O)c2cc1OC`, the Activity in [1] amounted to 186%; in series [2], 68%; in [3], 58%; in series [4] it was 18%; in series [5], 97%; in series [6], 17%.

`COc1cc2nc(SCC(=O)NNC(=O)CCc3ccccc3)n(Cc3ccccc3)c(=O)c2cc1OC`: the Activity amounted to 114% in [1], 81% in series [2] and 0% in series [3].

In the case of `COc1cc2nc(SC)n(Cc3ccccc3)c(=O)c2cc1OC`, the Activity entry in series [14] is “Toxic”.

`CCCC(CCC)C(=O)[O-].[Na+]` [VALPROATE SODIUM]: the Activity in [12] is 100%.
